Assays:
Rsd^ec [1] = molecular target: T1, Rsd^ec (Escherichia coli, UniProt P0AFX4); test: Fluorescence titration, peptide/Rsd^ec binding
T1 construct: His-tag; made in house; host or cells: E. coli C41
Procedure: Spectra were collected at 25 °C on a Cary spectrofluorometer (Agilent, Madrid, Spain), with a Peltier temperature controller. The samples were prepared the day before and left overnight at 5 °C. Before measurements, the samples were incubated for 1 h at 25 °C. A quartz cell with a 1 cm path length (Hellma, Kruibeke, Belgium) was used. In all the experiments, the slit widths were equal to 5 nm for both the excitation and emission lights. Protein samples were excited at either 280 or 295 nm. The experiments were performed between 300 and 400 nm. The signal was acquired for 1 s, and the increment of wavelength was set to 1 nm. Appropriate blank corrections were made in all spectra. For the binding experiments, 3 µM of either protein (Rsd^ec or EIN^sc) and 15 µM of the corresponding peptide were mixed. The experiments in aqueous solution were acquired in Tris buffer (50 mM, pH 7.0).
For the titration between either of the two proteins (Rsd^ec or EIN^sc) and the corresponding peptide, increasing amounts of the latter, in a concentration range of 0 to 30 µM, were added to a solution with a fixed concentration of each protein (3 µM). The experimental set-up was identical to that described above, including preparation of the samples the day before and their storage overnight at 5 °C. Before measurements, the samples were incubated for 1 h at 25 °C. The fluorescence of a blank solution containing only the corresponding peptide was subtracted for each data point. […] The Kd was determined by following the fluorescence at selected wavelengths and fitting experimental data to Equation (1). […] At all used concentrations, the fluorescence was corrected by the inner-filter effects.

Rsd^ec [2] = molecular target: T1, Rsd^ec; test: Isothermal titration calorimetry (ITC), peptide/Rsd^ec binding; conditions: ITC, 25 °C, 50 mM Tris pH 7.0
Procedure: The experimental set-up and data processing of ITC experiments has been described previously. Rsd^ec or EIN^sc (at 10–20 µM) were injected into the cell, and the peptides in the syringe (100–200 µM) in 50 mM of Tris buffer, pH 7.0. The temperature for all the experiments was 25 °C. Typically, each calorimetric titration consisted of performing 19 injections with 2 μL volume, with a time spacing of 150 s, while stirring at 750 rpm in an Auto-iTC200 high-sensitivity microcalorimeter (MicroCal, Malvern-Panalytical, Malvern, UK). The results were analysed by applying a model that considered a single binding site (assuming a 1:1 stoichiometry) for the peptide/EIN^sc or peptide/Rsd^ec interaction using a nonlinear least-squares regression analysis in Origin 7.0 (OriginLab, Northampton, MA, USA) with user-defined fitting routines.

[3] = TFE titration followed by far-UV CD (disordered-helical two-state equilibrium); format: physicochemical
Procedure: For experiments in the presence of TFE, the same set of experimental parameters was used. Cosolvent concentrations were indicated in percentage of volume (%). […] The peptide concentration for these experiments was 20 µM.

[4] = Far-UV CD, helicity from molar ellipticity at 222 nm; format: physicochemical; conditions: 5 °C
Procedure: Spectra were collected on a Jasco J810 spectropolarimeter (Jasco, Tokyo, Japan) interfaced with a Peltier unit. Far-UV measurements were performed with samples placed in quartz cells with a 0.1 cm path length (Hellma, Kruibeke, Belgium), with a response time of 2 s, a band width of 1 nm, and a scan velocity of 50 nm/min. For all peptides, a wide range of concentrations (10–50 µM) was used to determine whether either the shape or the intensity of the spectra was concentration-dependent. None of those features changed in the concentration range explored. The experiments in aqueous solution were acquired at 5 °C in Tris buffer (50 mM, pH 7.0). Raw ellipticity was converted to molar ellipticity, [Θ], from which the fraction of helical populations was determined as previously described. For the experiments in the presence of each protein (repeated three times), the same concentration used in the fluorescence experiments was used, and the experimental set-up was the same as described above for the isolated peptides.

[5] = TFE titration by far-UV CD, 20 µM peptide, two-state fit, fitting errors

T1 sequence (P0AFX4 whole entry): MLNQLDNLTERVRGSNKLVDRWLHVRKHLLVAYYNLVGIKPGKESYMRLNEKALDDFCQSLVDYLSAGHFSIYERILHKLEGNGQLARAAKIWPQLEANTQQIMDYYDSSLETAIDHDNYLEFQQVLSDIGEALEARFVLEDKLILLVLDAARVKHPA

## Ac-GWAEGLHARPASIFVRAATATG-NH2 [Wild-type]
Rsd^ec [1]
  Kd: 5 µM
Rsd^ec [2]
  ΔH, Rsd^ec: 1.3 ± 0.4 kcal/mol
[3]; [5]
  [TFE]1/2: 23.2 ± 0.5 % (v/v)
  m: 166 ± 23 cal/mol (% (v/v))
[3]; from ∆G^water assuming a two-state conformational equilibrium
  percentage of helical population (in parentheses): 0.10%
[3]; product of m- and [TFE]1/2 values, error propagation
  ∆G^water: 3.8 ± 0.5 kcal/mol
[4]; 50 mM Tris pH 7.0
  [Θ]^222 (value in parentheses): −612.44 deg cm^2 dmol^−1
[4]; 50 mM Tris pH 7.0, from [Θ]^222 assuming −39,500 deg cm^2 dmol^−1 for a fully formed α-helix
  Helicity (%): 1.6%
